Assay results from paper PMC7782687, “Insights into SusCD-mediated glycan import by a prominent gut symbiont” (Nature Communications, 2021).
Where “and” joins values, the source holds several entries; their conditions need not be identical. Equal entries are not always repeated.

Key:
[1] = tested on: B. theta Δ1760 strain; experiment: Growth of Δ1760 (surface endo-levanase deletion) strain on levans from different sources; type: cell-based, Bacteroides thetaiotaomicron; settings: minimal media, anaerobic, 37 °C, replicates 1-3, single wells
Description: Growth curves were performed in an Epoch microplate spectrometer (Biotek Instruments Ltd) with 96-well Costar culture plate (Sigma-Aldrich) inside an anaerobic cabinet at 37 °C (Don Whitley Scientific, A35 workstation). Media were inoculated 1:10 with bacterial cultures previously grown overnight in BHI. Final culture volumes of 200 µl were used, and each condition was performed in triplicate. Optical density at 600 nm was measured in each well at 30 min intervals.
In most cases, the levan used was from Erwinia herbicola (Sigma). For analysis of the growth of the Δ1760 strain, bacterial levans from Bacillus sp. (Montana Polysaccharides) and Zymomonas mobilis[64] (a kind gift from Prof. Dr. Yekta Göksunger, Ege University, Izmir, Turkey) were also used, as well as levan from Timothy grass (Megazyme) and in vitro synthesised levan. In vitro synthesised levan was made using Bacillus subtilis levansucrase incubated with 20% sucrose in PBS for 24 h at 37 °C. Proteinase K (100 µg/ml) was then added to remove the protein, before being precipitated out using 0.5% trichloroacetic acid final. The levan was then extensively dialysed against water and freeze dried.

[2] = target: T1, Bt1763 (SusC) TonB-dependent transporter of the Bacteroides thetaiotaomicron levan utilisation locus (Bacteroides thetaiotaomicron, UniProt Q8A6W3 26-1041); experiment: crystal structure; Bt1762-63 purified from B. theta outer membranes, in 0.4% C8E4; apo and with 2.5 mM β2,6 FOS; 0.15 M sodium formate, 0.1 M HEPES pH 7-7.5, 16-20% PEG 3350; settings: both partners purified
T1 construct: Bt1763 (SusC), TonB-dependent transporter of the levan PUL, Bacteroides thetaiotaomicron VPI-5482; numbers count on: the mature protein; In closed states seen by cryo-EM the plug domain has no density; source: endogenous, B. thetaiotaomicron VPI-5482 (Bt1762-his strain) grown on MM fructose; outer membrane extracted with LDAO; purified with His-tagged Bt1762 (IMAC, SEC)
T1 sequence (looked up): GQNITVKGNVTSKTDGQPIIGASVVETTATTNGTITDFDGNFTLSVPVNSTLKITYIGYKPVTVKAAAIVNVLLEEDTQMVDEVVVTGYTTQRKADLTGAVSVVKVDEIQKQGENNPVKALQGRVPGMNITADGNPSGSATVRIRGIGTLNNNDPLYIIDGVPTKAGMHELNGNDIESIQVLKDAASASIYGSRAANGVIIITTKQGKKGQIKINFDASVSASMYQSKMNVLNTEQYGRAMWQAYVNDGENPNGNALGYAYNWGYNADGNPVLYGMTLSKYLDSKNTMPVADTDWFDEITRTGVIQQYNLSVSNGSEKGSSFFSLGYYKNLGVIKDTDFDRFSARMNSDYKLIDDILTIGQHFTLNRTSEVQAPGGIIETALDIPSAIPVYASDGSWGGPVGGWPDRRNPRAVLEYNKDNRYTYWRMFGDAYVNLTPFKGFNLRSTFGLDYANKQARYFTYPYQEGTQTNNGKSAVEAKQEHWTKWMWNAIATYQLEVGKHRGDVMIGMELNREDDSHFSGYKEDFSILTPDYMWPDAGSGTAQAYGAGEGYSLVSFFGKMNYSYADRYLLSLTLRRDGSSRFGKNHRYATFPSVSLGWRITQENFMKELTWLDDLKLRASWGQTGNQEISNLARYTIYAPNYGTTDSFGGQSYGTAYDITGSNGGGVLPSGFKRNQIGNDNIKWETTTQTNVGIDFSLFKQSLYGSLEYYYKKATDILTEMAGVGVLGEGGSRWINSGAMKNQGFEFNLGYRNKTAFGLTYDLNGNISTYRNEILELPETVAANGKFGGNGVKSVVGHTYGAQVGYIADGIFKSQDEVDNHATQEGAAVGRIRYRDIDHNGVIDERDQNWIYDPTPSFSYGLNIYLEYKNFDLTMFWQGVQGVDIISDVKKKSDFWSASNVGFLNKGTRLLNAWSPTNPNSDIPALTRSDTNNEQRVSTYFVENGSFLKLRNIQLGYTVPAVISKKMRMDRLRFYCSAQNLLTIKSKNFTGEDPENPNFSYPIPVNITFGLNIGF

[3] = target: the molecule itself; experiment: as above

O=C(CO)C(O)C(O)C(O)CO (centres unmarked) [Frc]
Optical density at 600 nm ([1]; time 00:00:00, carbon source 0.5 %): 0.303 and 0.324 and 0.321 and 0.418 and 0.289 and 0.311 and 0.334 and 0.296 and 0.325 | Optical density at 600 nm ([1]; time 00:30:00, carbon source 0.5 %): 0.171 (2×) and 0.174 (2×) and 0.172 (2×) and 0.177 and 0.173 and 0.181 | Optical density at 600 nm ([1]; time 01:00:00, carbon source 0.5 %): 0.178 (2×) and 0.179 (2×) and 0.177 (2×) and 0.18 (2×) and 0.182 | Optical density at 600 nm ([1]; time 01:30:00, carbon source 0.5 %): 0.186 and 0.189 (2×) and 0.187 (2×) and 0.188 (2×) and 0.184 and 0.19 | Optical density at 600 nm ([1]; time 02:00:00, carbon source 0.5 %): 0.194 and 0.197 and 0.196 (2×) and 0.199 (2×) and 0.191 and 0.202 and 0.198 | Optical density at 600 nm ([1]; time 02:30:00, carbon source 0.5 %): 0.203 and 0.21 and 0.212 and 0.211 and 0.198 and 0.204 and 0.215 and 0.206 and 0.214 | Optical density at 600 nm ([1]; time 03:00:00, carbon source 0.5 %): 0.211 and 0.217 and 0.232 and 0.225 and 0.205 and 0.212 and 0.229 and 0.214 and 0.226 | Optical density at 600 nm ([1]; time 03:30:00, carbon source 0.5 %): 0.22 and 0.224 (2×) and 0.261 and 0.24 (2×) and 0.214 and 0.221 and 0.255 | Optical density at 600 nm ([1]; time 04:00:00, carbon source 0.5 %): 0.228 and 0.23 (2×) and 0.304 and 0.261 (2×) and 0.22 and 0.234 and 0.284 | Optical density at 600 nm ([1]; time 04:30:00, carbon source 0.5 %): 0.233 and 0.24 and 0.355 and 0.279 and 0.223 and 0.252 and 0.313 and 0.238 and 0.283 | Optical density at 600 nm ([1]; time 05:00:00, carbon source 0.5 %): 0.238 and 0.259 and 0.442 and 0.309 and 0.227 and 0.278 and 0.351 and 0.243 and 0.306 | Optical density at 600 nm ([1]; time 05:30:00, carbon source 0.5 %): 0.249

B1: Bt1762 (SusD) of the Bacteroides thetaiotaomicron levan utilisation locus, with C-terminal His6 tag (natural protein, UniProt Q8A6W4 19-570, looked up)
chain: CDDFLDRQVPQGIVTGDQIASPEYVDNLVISAYAIWATGDDINSSFSLWNYDVRSDDCYKGGSGTEDGGVFNALEISKGINTTDWNINDIWKRLYQCITRANTALQSLDQMDEKTYPLKNQRIAEMRFLRGHAHFMLKQLFKKIVIVNDENMEPDAYNELSNTTYTNDEQWQKIADDFQFAYDNLPEVQIEKGRPAQAAAAAYLAKTYLYKAYRQDGADNALTGINEEDLKQVVKYTDPLIMAKGGYGLETDYSMNFLPQYENGAESVWAIQYSINDGTYNGNLNWGMGLTTPQILGCCDFHKPSQNLVNAFKTDSQGKPLFSTYDNENYEVATDNVDPRLFHTVGMPGFPYKYNEGYIIQKNDDWSRSKGLYGYYVSLKENVDPDCDCLKKGSYWASSLNHIVIRYADVLLMRAEALIQLNDGRITDAISLINEVRSRAAGSTMLIFNYKEDYGVNFKVTPYDLKAYAQDEAMKMLKWERRVEFGMESSRFFDLVRWGEAKDVINAYYVTEASRCSIYKNAGFTENKNEYLPVPFEQISASNGNYTQNFGW
modifications: lipid anchor (lipoprotein)
notes: numbers count on: the mature protein; His6 tag is chromosomal; also called SusD lid; WT (Bt1762-his strain); source: B. thetaiotaomicron VPI-5482 (Bt1762-his strain) grown on MM fructose; outer membrane extracted with LDAO; purified with Bt1763 (IMAC, SEC); not shown: His6, C-terminal, kept
binding result [2]: binds

B2: Bt1762-Bt1763 SusCD complex (complex, Bacteroides thetaiotaomicron)
chain 1: B1 chain
chain 2: T1 sequence (looked up)
modifications: lipid anchor (lipoprotein)
notes: Bt1762 (SusD), Bacteroides thetaiotaomicron VPI-5482; as m1; numbers count on: the mature protein; Bt1763 (SusC), Bacteroides thetaiotaomicron VPI-5482; as m2; One SusCD unit (one Bt1762, one Bt1763); two such units form the SusC2D2 dimer; also called Bt1762-63; BT1762-63; source: B. thetaiotaomicron VPI-5482 (Bt1762-his strain) grown on MM fructose; outer membrane extracted with LDAO; purified …
stoichiometry N [3]: 2
